Assay results as given in PubChem BioAssay AID624344 (Sanford-Burnham Center for Chemical Genomics, 2012).
The source made the active and inactive calls. No rule for the calls is given here.

What was measured:
Cytotoxicity = assay: NFkB reporter suppression in cystic fibrosis bronchial cells – cell-based, uHTS hits, panel, cytotoxicity readout, dose response (AID 624344); details: CF bronchial epithelial cells, mean of runs
[1] = as above; details: CF bronchial epithelial cells, PAF-induced NFkB reporter inhibition; with PAF, mean of runs

SMILES	IC50 (Cytotoxicity)	IC50 [1]
CN(c1cccc(Cl)c1)S(=O)(=O)c1cccc(C(=O)Nc2nc3ccccc3[nH]2)c1	12.2 µM	6.19 µM
O=C(NCc1cccnc1)/C(=C\c1ccc(-c2cccc(Cl)c2)o1)S(=O)(=O)c1ccccc1	5.33 µM	1.71 µM
Cc1ccc(-n2cc(-c3ccccc3)c3c(N4CCOCC4)ncnc32)cc1	3.85 µM	3.49 µM
COc1ccc2ncn(-c3ccccc3)c2c1	60.6 µM (inactive)	5.47 µM
CN1CCN(c2ncnc3scc(-c4ccccc4Cl)c23)CC1	57.2 µM (inactive)	3.89 µM
COc1ccc(-n2cc(-c3ccccc3)c3c(N4CC(C)OC(C)C4)ncnc32)cc1 (centres undefined)	3.56 µM	4.95 µM
C=CCn1cnc2c(c1=O)c1nc3ccccc3nc1n2/N=C/c1cc(OC)c(OC)c(OC)c1	5.94 µM	4.18 µM
COc1ccc(-n2nc(C(=O)NCC(=O)Nc3cc(OC)c(OC)c(OC)c3)c3ccccc3c2=O)cc1Cl	23.1 µM	1.61 µM
Cc1ccc(NC(=O)Nc2nnc(-c3ccncc3)s2)cc1C	9.39 µM	3.46 µM
CC(=C/c1ccccc1)/C=N/n1c(-c2ccncc2)n[nH]c1=S	65.2 µM (inactive)	0.43 µM
C=CCN(CC=C)c1ncnc2[nH]ncc12	> 79 µM (inactive)	1.24 µM
O=S(=O)(Nc1cccc2cccnc12)c1ccccc1	44.5 µM	1.69 µM
CNc1ccc2ncc(-c3ccc(OC)c(OC)c3)n2n1	15.8 µM	0.535 µM
Cc1c(C(=O)OCC(C)C)[nH]c2c1C(=O)CC(c1ccco1)C2 (centres undefined)	38.3 µM	inactive
COc1ccc(-c2cc(=O)oc3c(C)c(O)ccc23)cc1	67.5 µM (inactive)	0.867 µM
CCCCCCc1cc2cc(C(=O)OCC)c(=O)oc2cc1O	20.2 µM	7.22 µM
COc1cccc(-c2ccc3ncnc(NCc4cccnc4)c3c2)c1	11.3 µM	1.23 µM
CC(=O)c1c(O)cc(O)c(C(C)=O)c1O	5.8 µM	5.34 µM
C=CCSc1nsc(NC(=O)Nc2cccc(C(C)=O)c2)n1	6.08 µM	1.44 µM
O=Nc1ccc(NO)c2ccccc12	17.4 µM	7.21 µM
COc1cc(NC(=O)c2cc3ccccc3cc2OC)ccc1NC(=O)c1cccs1	11 µM	5.79 µM

SMILES	IC50 (Cytotoxicity)	IC50 [1]
CC(C)[C@H](CO)Nc1nc(NCc2ccc(S(N)(=O)=O)cc2)c2ncn(C(C)C)c2n1	11.9 µM	1.67 µM
Cc1[nH]nc2nc(SCC(=O)NCCC3=CCCCC3)n(-c3ccc(Br)cc3)c(=N)c12	6.73 µM	8.27 µM
CCOc1cc2c(cc1O)C(=NO)CC1C2CCC2(C)C(O)CCC12 (centres undefined)	31 µM	17.5 µM
Cc1ccc(-c2cc(C(=O)N(C)Cc3cnn(C)c3C)c3cc(Br)ccc3n2)cc1	14.4 µM	5.57 µM
O=C(NNc1ccccc1Br)C(O)(c1cccc(C(F)(F)F)c1)c1cccc(C(F)(F)F)c1	7.73 µM	5.72 µM
C#CCN(C[C@@H]1[C@@H](OC(=O)NCc2ccco2)[C@@H](OC(=O)NCc2ccco2)Cn2c(=O)ccc(=O)n21)S(=O)(=O)c1ccc(C)cc1	18.3 µM	3.11 µM
COc1cccc(NC(=O)Nc2nnc(CC(=O)Nc3ccccc3)s2)c1	55.8 µM (inactive)	4.89 µM
CCC(=O)c1ccc(O)c(CC=C(C)C)c1	60.1 µM (inactive)	5.27 µM
O=c1c(-c2c(O)cc(O)c3c2O[C@H](c2ccc(O)cc2)CC3)c(-c2ccc(O)cc2)oc2cc(O)cc(O)c12	5.44 µM	1.44 µM
COc1ccc(/C=N/Nc2nc(-c3cccnc3)nc3ccccc23)cc1OC	8.04 µM	3 µM
Cc1ccc(-c2onc3ccc(C(=O)/C=C/N(C)C)cc23)cc1	22.9 µM	9.39 µM
COc1ccc(-c2csc3ncnc(NCCN4CCOCC4)c23)cc1	47 µM	3.79 µM
O=c1cc(-c2ccccc2Cl)oc2c([N+](=O)[O-])c(O)cc(O)c12	5.36 µM	0.235 µM
C=CCN1c2ccccc2[C@]23C[C@@H](C(=O)OC)N(C(=O)c4ccc(Br)cc4)C2=NC(C(=O)OC)=C(C(=O)OC)[C@H]13	12.2 µM	9.35 µM
COCc1cc(S(=O)c2ccc(Cl)cc2)nc(C)n1 (centres undefined)	22 µM	3.13 µM
CCc1ccccc1NC(=O)CN(C)C(=O)Cn1ncc(Cl)c(Cl)c1=O	38 µM	6.43 µM
COc1cc(C(=O)c2cc3c(cc2C)OCO3)cc(OC)c1OC	44.5 µM	> 79 µM (inactive)
O=C(NCCCSc1ccccc1)c1cc(Br)ccc1O	3.05 µM	4.8 µM
COc1cc(NC(=O)Cn2ncc(Cl)c(Cl)c2=O)c(C)cc1[N+](=O)[O-]	3.15 µM	3.31 µM
COc1cncc(-c2cnc3sc(NCCc4ccccn4)nn23)c1	> 79 µM (inactive)	1.53 µM
O=C(Nc1ccccc1N1CCOCC1)c1cc(-c2ccco2)nc2ccccc12	9.59 µM	3.88 µM

SMILES	IC50 (Cytotoxicity)	IC50 [1]
c1ccc2c(-c3cncc4ccccc34)cncc2c1	56.9 µM (inactive)	6.1 µM
O=C(OC1CCOC1=O)c1ccccc1C(=O)c1ccc(Cl)c([N+](=O)[O-])c1 (centres undefined)	7.46 µM	4.44 µM
Cc1c(C(=O)OC2CCCC2)[nH]c2c1C(=O)CC(c1ccco1)C2 (centres undefined)	46.3 µM	inactive
Clc1cccc(Nc2ncnc3ccc(Br)cc23)c1	15.1 µM	3.53 µM
Cc1ccc(Sc2c(C=O)c3ccccc3n2C)cc1	18 µM	2 µM
COc1ccc([C@]2(C(C)C)ON(c3ccccc3C(F)(F)F)C2=O)cc1	> 79 µM (inactive)	11.1 µM
Oc1ccc(Nc2ncnc3scc(-c4ccccc4)c23)cc1	48.7 µM	12.6 µM
CN(C)c1ccc(-c2nn3c(-c4ccccc4Cl)nnc3s2)cc1	> 79 µM (inactive)	19.2 µM
Cc1cccc(NC(=O)c2cc(-c3ccc(C)s3)nc3ccccc23)n1	42.4 µM	5.26 µM
CCOc1ccc(-n2cc(-c3ccccc3)c3c(N4CCOCC4)ncnc32)cc1	7.28 µM	3.99 µM
CCCCN(CCCC)c1ncnc2nc[nH]c12	41.4 µM	5.64 µM
Cc1ccccc1S(=O)(=O)Cc1ccc(C(=O)N2CCN(c3cccc(C)c3C)CC2)o1	25 µM	11 µM
Cc1ccc(-c2n[nH]c(=S)n2/N=C/c2ccncc2)cc1	53.1 µM (inactive)	2.63 µM
C=CC[C@@H](CC/C=C/C=C/CC/C=C\[C@@H]1CSC([C@@H]2C[C@@H]2C)=N1)OC	63 µM (inactive)	inactive
O=C(c1ccccc1)C1OC1C(=O)c1ccccc1 (centres undefined)	54.5 µM (inactive)	6.25 µM
COc1ccc(OC)c(-c2nnc3n2N=C(c2ccc(OC)c(OC4CCCC4)c2)CS3)c1	> 79 µM (inactive)	6.47 µM
CCSc1nsc(NC(=O)Nc2cccc(C(C)=O)c2)n1	36.5 µM	2.24 µM
CCOC(=O)[C@@H]1[C@H]2COc3ccc(Br)cc3[C@H]2N2C(=O)N(c3ccc(C)cc3)C(=O)[C@]12C	> 79 µM (inactive)	> 79 µM (inactive)
COc1ccc(/C=C/C(=O)c2cc(F)ccc2OC(=O)c2ccccc2C)cc1OC	62.5 µM (inactive)	inactive
Cc1ccc(NC(=O)c2cc(C(=O)c3cc(Cl)ccc3O)cn(-c3ccc(C)cc3)c2=O)cc1	53 µM (inactive)	9.4 µM
CCCc1cc(-c2[nH]ncc2-c2ccc3c(c2)OCCCO3)c(O)cc1O	25.9 µM	8.75 µM

SMILES	IC50 (Cytotoxicity)	IC50 [1]
ON=C1c2ccccc2-c2ccccc21	63 µM (inactive)	19.5 µM
CS(=O)(=O)c1ccc2nc(NC(=O)Nc3cccc(Cl)c3)sc2c1	3.28 µM	3.67 µM
CC(C)C[C@H]1CNC(=S)N1C[C@H]1CCCN1C[C@H](Cc1ccccc1)N1C[C@H](Cc2ccc(O)cc2)N(CC2CCCCCC2)C1=S	28.6 µM	15.3 µM
O=S(=O)(c1cccc2cnccc12)N1CCCNCC1	8.16 µM	4.07 µM
O=C(NCCN1CCN(c2ccccc2)CC1)c1cccc(Br)c1	57.4 µM (inactive)	18.9 µM
COc1ccc(-c2oc3ccc(-c4ccc5c(c4)OCO5)cc3c2C#CC2(O)CCCCC2)cc1	41.3 µM	2.67 µM
C=C1C(=O)[C@]23C[C@H]1CC[C@H]2[C@]1(C)[C@@H](O)CC[C@@](C)(C(=O)O)[C@H]1C[C@@H]3O	12.5 µM	2.04 µM
Fc1ccccc1-c1csc(=Nc2cccnc2)n1CCCn1ccnc1	48.4 µM	5.92 µM
O=C(/C=C/c1cccc([N+](=O)[O-])c1)n1cnc2ccccc21	11.2 µM	1.99 µM
O=C1OC(Nc2nc(-c3ccc(F)cc3)cs2)c2ccccc21 (centres undefined)	10.7 µM	2.31 µM
O=C(NCc1ccco1)c1nc2c(nnn2Cc2ccccc2Cl)c(=O)[nH]1	5.1 µM	1.46 µM
COc1ccc(-n2c(C)c(C(C)=O)c3cc(O)ccc32)cc1	> 79 µM (inactive)	0.308 µM
Cc1ccc(C(=O)Nc2cccc(C(F)(F)F)c2)cc1NC(=O)c1ccno1	> 79 µM (inactive)	0.626 µM
CS(=O)(=O)Nc1cccc(-c2cc(NC=O)c3ncc(-c4ccc(F)cc4)n3c2)c1	8.66 µM	2.4 µM
CCOC(=O)Nc1nc(-c2ccccc2)c(C(=O)c2ccccc2)s1	> 79 µM (inactive)	14.3 µM
Fc1ccc(Nc2ccnc(Nc3ccc(F)cc3)n2)cc1	14 µM	7.91 µM
Cc1cccc(Nc2ncnc3ccc(Br)cc23)c1	13.1 µM	3.93 µM
CCOC(=O)c1[nH]c(C)c(C(=O)N2CCc3ccccc32)c1C	44.5 µM	> 79 µM (inactive)
CC(C)C[C@@H](CN1CCCC1CN1C(=S)NC[C@@H]1Cc1ccc(O)cc1)N1C[C@H](Cc2ccc(O)cc2)N(CC2CCCCCC2)C1=S (some centres undefined)	25.2 µM	7.98 µM
